The series can be described thus: Alkali-resistant solubility test (filtration of dyestuff in alkali solution). The note with it: aqueous alkali solution (Na2SiO2 and NaOH), aqueous buffer; Na2SiO2 50°Be′ = 100 g/L, NaOH 38°Be′ = 30 ml/L; filtered through No. 1 filter paper. In kind it is physicochemical. The procedure: First, the dyestuffs of the formula (A) and the formula (1), taken with proper amounts in accordance to a preliminary test, are respectively dissolved in water. The alkali solution including 100 g/L 50°Be′ Na2SiO2 and 30 ml/L 38°Be′ NaOH is added therein, respectively. The mixture samples respectively are filtered through the No. 1 filter paper of Toyo Rosh Kaisha, Ltd. in order to estimate how many solids are residual and then to determine the alkali-resistant solubility.

Each structure is given as a SMILES string.

The term solubility denotes the concentration that dissolves in the medium under given conditions.

Regarding `CCN(c1cccc(S(=O)(=O)CCOS(=O)(=O)O)c1)c1nc(Nc2cc(S(=O)(=O)O)cc3c2[O][Cu-]24[O]C(=O)c5ccc(S(=O)(=O)O)cc5[N]2N=C(c2ccccc2)N=[N+]34)nc(SCC(=O)O)n1` (stereo not shown) [formula (1)], the solubility is > 70 mg/mL.

These data come from patent publication US20090018317A1, “Reactive dyestuffs with alkylthio group and beta-sulfatoethysulfone group” (Everlight USA, Inc., priority 2007, published 2009).
